According to patent US9340505B2, “Type III secretion inhibitors, analogs and uses thereof” (priority 2007, dated 2016):
Entries after “also recorded” stand apart in the source; their conditions may differ. Like-named read-outs stand apart in the source and are kept apart here.

What was measured:
YopE-B1a secretion = assay: microbe, parasite or virus in culture; type: cell-based, Y. pestis; conditions: for IC50 / inhibition at 60 µM: Yersinia pestis
[1] = system: T3S mediated cytotoxic response of HeLa cells infected by Y. pestis
T3S = conditions: read-out: IC50 as T3S inhibitor in Y. pseudotuberculosis; cited from earlier work
Y. pestis JG401 = type: cell-based
Y. pestis = type: cell-based
secretion of Yops = type: cell-based, Y. pestis
YopH secretion = type: cell-based, Y. pestis
[2] = system: YopE-B1a translocation to HeLa cells; assay: cells; type: cell-based, Y. pestis
bacterial T3S = conditions: cited from earlier work
HeLa cells = assay: Cytotoxicity of compounds, Lactate Dehydrogenase (LDH) assay; conditions: 60 μM
[3] = read-out: IC50 (μM) of YopE secretion, round 3 lead 1 analogs
[4] = read-out: Mean Inhibition (%) (3rd round compound 3 analogs)
[5] = read-out: IC50 of YopE secretion (Table 13)

Compound: CNC(=O)c1ccc(C#N)c(SCc2ccc(Cl)cc2)n1 [MC1_3-1]
- inhibitory activity on YopE-B1a secretion (in words) (YopE-B1a secretion): showed inhibitory activity
- IC50 (YopE-B1a secretion; [3]): < 15 µM

Compound: Cl.N#Cc1cccc(NC(=O)Nc2cccc(C3=NCCN3)c2)c1 [Compound 3]
- inhibition of T3S mediated cytotoxic response (morphological change) [1]: inhibited the cytotoxic response

Compound: FC(F)(F)c1cc(Nc2nc3ccc(C4=NCCN4)cc3[nH]2)ccc1Cl [MC3_3-4]
- inhibition at 60 µM (YopE-B1a secretion; [4]): 0%

Compound: CC(=O)c1ccc(NC(=O)Nc2cccc(C3=NCCN3)c2)cc1.Cl [Compound 4, 1-(4-acetylphenyl)-3-(3-(4,5-dihydro-1H-imidazol-2-yl)phenyl)urea hydrochloride]
- inhibition of T3S mediated cytotoxic response (morphological change) [1]: inhibited the cytotoxic response

Compound: Cc1ccc(CSc2nc(C(=O)O)ccc2C#N)cc1 [Compound 1, 2-Pyridinecarboxylic acid, 5-cyano-6-[[(4-methylphenyl)methyl]thio]-]
- IC50 (YopE-B1a secretion; [3]): < 15 µM
- IC50 (YopE-B1a secretion; [5]): > 60 µM

Compound: O=C(N/N=C/c1cc(Br)cc(Br)c1O)c1ccc([N+](=O)[O-])cc1 [INP0007]
- IC50 (T3S): 50 µM
- promotion of Y. pestis growth at 37° C. in the absence of Ca2+ (Y. pestis JG401): did not promote the growth
- inhibition of Y. pestis growth (Y. pestis): completely inhibited
- inhibition of secretion of Yops (in words) (secretion of Yops): inhibited secretion of Yops

Compound: N#Cc1ccc(C(=O)O)nc1SCc1ccc(C(F)(F)F)cc1 [MC1_1-8]
- IC50 (YopE-B1a secretion; [5]): 55 µM

Compound: O=C(Nc1cccc(C2=NCCN2)c1)Nc1cccc(C(F)(F)F)c1 [MC3_1-9]
- concentration dependent T3S inhibition (in words) (YopH secretion): concentration dependent inhibitory activities

Compound: CCC(=O)O.CCC(=O)O.O=C(Nc1cccc(C2=NCCN2)c1)Nc1cccc(C2=NCCN2)c1 [Compound 3 dipropionate, propanoic acid, compd. with N,N′-bis[3-(4,5-dihydro-1H-imidazol-2-yl)phenyl]urea (2:1)]
- inhibition of YopE-B1a translocation (in words) ([2]; 80 μM): completely inhibited
- inhibition at 40 µM ([2]; Yersinia pestis, HeLa, 40 μM): 50%

Compound: N#Cc1ccc(C(=O)O)nc1SCc1ccc(OC(F)(F)F)cc1 [MC1_1-9, 5-cyano-6-(4-(trifluoromethoxy)benzylthio) picolinic acid]
- IC50 (YopE-B1a secretion; [5]): 30 µM

Compound: COC(=O)c1ccc(C#N)c(SCc2ccc(Cl)cc2)n1 [MC1_3-2]
- inhibitory activity on YopE-B1a secretion (in words) (YopE-B1a secretion): showed inhibitory activity
- IC50 (YopE-B1a secretion; [3]): 20 ± 5 µM

Compound: N#Cc1ccc(C(=O)O)nc1Sc1ccc(Cl)cc1 [MC1_2-3, 6-(4-chlorophenylthio)-5-cyanopicolinic acid]
- IC50 (YopE-B1a secretion; read-out: IC50 (μM) of YopE secretion, 2nd round compound 1 analogs): < 15 µM
- inhibition at 60 µM (YopE-B1a secretion; 60 μM, read-out: Mean Inhibition (%) of YopE-B1a secretion (Table 14)): 95.9%
- inhibition at 60 µM (YopE-B1a secretion; 60 μM, read-out: inhibition on YopE-B1a secretion): ~95%

Compound: N#Cc1ccc(C(=O)O)nc1SCc1ccccc1 [MC1_1-2, 6-(benzylthio)-5-cyanopicolinic acid]
- IC50 (YopE-B1a secretion; [5]): 60 µM

Compound: CCCCCCCCC[C@H](CCCCCCCC(C)=O)O[C@@H]1O[C@H](CO)[C@@H](O)[C@H](O)[C@H]1O[C@@H]1O[C@H](CO[C@@H]2O[C@H](C)[C@H](O)[C@H](O)[C@@H]2O)[C@@H](OC(C)=O)[C@H](OC(=O)CCC)[C@H]1O[C@@H]1O[C@@H](C)[C@H](O)[C@@H](O)[C@@H]1O [Caminoside A]
- activity in screen for bacterial T3S inhibitors (bacterial T3S): potent activity

Compound: Nc1cc(Oc2ccc(O)c(N)c2)ccc1O [Compound 2-4]
- cytotoxicity of analogs to HeLa cells (in words) (HeLa cells): significant decrease in cytotoxicity

Compound: Cc1ccc(-c2nn(-c3ccccc3)cc2C2CC(c3ccccc3)=NN2C(=O)CCC(=O)O)cc1 (centres unmarked) [Compound 4-6]
- activity against YopH secretion (in words) (YopH secretion): showed activity

Compound: O=C(Nc1cccc(C2=NCCN2)c1)Nc1cccc([N+](=O)[O-])c1 [MC3_1-2]
- activity against YopH secretion (in words) (YopH secretion): showed inhibition
- concentration dependent T3S inhibition (in words) (YopH secretion): concentration dependent inhibitory activities

Compound: N#Cc1ccc(C(=O)O)nc1SCc1ccc(Cl)cc1 [MC1_1-1, 6-(4-chlorobenzylthio)-5-cyanopicolinic acid]
- IC50 (YopE-B1a secretion; [5]): 20 µM

Compound: N#Cc1cccc(NC(=O)Nc2cccc(C3=NCCN3)c2)c1 [MC3_1-3]
- concentration dependent T3S inhibition (in words) (YopH secretion): concentration dependent inhibitory activities

Compound: Cl.O=C(Nc1cccc(Cl)c1)Nc1cccc(C2=NCCN2)c1 [Compound 1, 1-(3-chlorophenyl)-3-(3-(4,5-dihydro-1H-imidazol-2-yl)phenyl) urea hydrochloride]
- inhibition of T3S mediated cytotoxic response (morphological change) [1]: inhibited the cytotoxic response

Compound: N#Cc1ccc(C(=O)O)nc1SCc1ccccc1Cl [MC1_1-5, 6-(2-chlorobenzylthio)-5-cyanopicolinic acid]
- IC50 (YopE-B1a secretion; [5]): ≥ 60 µM

Compound: O=C(Nc1cccc(Br)c1)Nc1cccc(C2=NCCN2)c1 [MC3_1-10]
- concentration dependent T3S inhibition (in words) (YopH secretion): concentration dependent inhibitory activities

Compound: FC(F)(F)c1cc(Nc2nc3cc(C4=NCCN4)ccc3o2)ccc1Cl [MC3_3-1]
- inhibition at 60 µM (YopE-B1a secretion; [4]): 69.8%

Compound: N#Cc1ccc(C(=O)O)nc1SCc1cccc([N+](=O)[O-])c1 [MC1_1-4, 5-cyano-6-(3-nitrobenzylthio) picolinic acid]
- IC50 (YopE-B1a secretion; [5]): > 60 µM

Compound: COc1ccc(CSc2nc(C(=O)O)ccc2C#N)cc1 [MC1_1-3, 5-cyano-6-(4-methoxybenzylthio) picolinic acid]
- IC50 (YopE-B1a secretion; [5]): > 60 µM

Compound: O=C(Nc1cccc(Cl)c1)Nc1cccc(C2=NCCN2)c1 [MC3_1-16]
- concentration dependent T3S inhibition (in words) (YopH secretion): concentration dependent inhibitory activities

Compound: FC(F)(F)c1cc(Nc2nc3cc(C4=NCCCN4)ccc3o2)ccc1Cl [MC3_3-2]
- inhibition at 60 µM (YopE-B1a secretion; [4]): 49%

Compound: FC(F)(F)c1cc(Nc2nc3ccc(C4=NCCN4)cc3o2)ccc1Cl [MC3_3-3]
- inhibition at 60 µM (YopE-B1a secretion; [4]): 103%

Compound: Cc1ccc(-c2nn(-c3ccccc3)cc2C2CC(c3cccs3)=NN2C(=O)CCC(=O)O)cc1 (centres unmarked) [Compound 4-5]
- activity against YopH secretion (in words) (YopH secretion): showed activity

Compound: N#Cc1ccc(C(N)=O)nc1SCc1ccc(Cl)cc1 [MC1_3-3]
- inhibitory activity on YopE-B1a secretion (in words) (YopE-B1a secretion): showed inhibitory activity
- IC50 (YopE-B1a secretion; [3]): 50 ± 5 µM

Compound: Oc1ccc(Oc2ccc(O)cc2)cc1 [Compound 2-3]
- cytotoxicity of analogs to HeLa cells (in words) (HeLa cells): significant decrease in cytotoxicity; also recorded: overcame the cytotoxicity
- activity against YopH secretion (in words) (YopH secretion): showed activity
- concentration dependent T3S inhibition (in words) (YopH secretion): retained inhibitory activity
